For six compounds, % of control results are on record in ChEMBL document CHEMBL5465560, “Selectivity Literature for EUbOPEN Chemogenomic Library” (2024).

For test [1], the target named is Serine/threonine-protein kinase 26 (Homo sapiens, UniProt Q9P289). Put plainly: Selectivity interaction (ProQinase) EUB0000171b STK26.
The target of test [2] is T1, Serine/threonine-protein kinase Nek1 (Homo sapiens) (UniProt Q96PY6).
T1 sequence (whole entry): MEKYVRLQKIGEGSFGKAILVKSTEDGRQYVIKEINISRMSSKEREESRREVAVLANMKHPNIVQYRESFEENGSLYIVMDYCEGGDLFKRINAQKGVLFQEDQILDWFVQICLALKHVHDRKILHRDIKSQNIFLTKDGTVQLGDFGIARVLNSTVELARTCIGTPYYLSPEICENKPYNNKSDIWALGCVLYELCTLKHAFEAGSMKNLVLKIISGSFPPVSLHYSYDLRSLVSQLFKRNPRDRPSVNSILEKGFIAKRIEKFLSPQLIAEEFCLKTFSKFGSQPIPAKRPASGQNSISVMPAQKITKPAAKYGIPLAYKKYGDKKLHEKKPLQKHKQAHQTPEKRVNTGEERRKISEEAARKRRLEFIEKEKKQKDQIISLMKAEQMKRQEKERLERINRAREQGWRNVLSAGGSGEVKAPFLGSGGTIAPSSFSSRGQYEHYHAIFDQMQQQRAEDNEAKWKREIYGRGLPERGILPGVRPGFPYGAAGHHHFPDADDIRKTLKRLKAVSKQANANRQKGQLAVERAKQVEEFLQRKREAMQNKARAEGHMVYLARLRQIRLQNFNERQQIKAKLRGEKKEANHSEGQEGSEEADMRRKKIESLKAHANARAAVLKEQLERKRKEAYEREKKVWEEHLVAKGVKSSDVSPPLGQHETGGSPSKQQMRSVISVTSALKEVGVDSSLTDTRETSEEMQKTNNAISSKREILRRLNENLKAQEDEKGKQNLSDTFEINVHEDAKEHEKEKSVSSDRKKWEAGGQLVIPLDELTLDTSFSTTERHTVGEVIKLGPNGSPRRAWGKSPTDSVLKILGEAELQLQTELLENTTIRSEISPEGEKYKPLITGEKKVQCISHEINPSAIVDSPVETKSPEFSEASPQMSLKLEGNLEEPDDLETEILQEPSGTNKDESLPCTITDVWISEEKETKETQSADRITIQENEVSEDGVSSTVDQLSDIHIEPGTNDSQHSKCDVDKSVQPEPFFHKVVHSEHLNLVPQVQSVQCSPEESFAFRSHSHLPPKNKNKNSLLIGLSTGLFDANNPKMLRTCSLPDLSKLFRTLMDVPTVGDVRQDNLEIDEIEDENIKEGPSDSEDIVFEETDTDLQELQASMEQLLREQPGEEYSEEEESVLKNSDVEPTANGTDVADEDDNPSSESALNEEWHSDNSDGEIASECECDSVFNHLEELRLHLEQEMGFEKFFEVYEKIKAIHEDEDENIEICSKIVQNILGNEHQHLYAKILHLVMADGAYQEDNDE
Put plainly: Selectivity interaction (Ambit KINOMEscan and KiNATiv profiling in Jurkat cells) EUB0000090b NEK1. Conditions: at 1 µM. It counts as cell-based.

In test [3] the target is T2, Calcium/calmodulin-dependent protein kinase type IV (Homo sapiens) (UniProt Q16566).
T2 sequence (whole entry): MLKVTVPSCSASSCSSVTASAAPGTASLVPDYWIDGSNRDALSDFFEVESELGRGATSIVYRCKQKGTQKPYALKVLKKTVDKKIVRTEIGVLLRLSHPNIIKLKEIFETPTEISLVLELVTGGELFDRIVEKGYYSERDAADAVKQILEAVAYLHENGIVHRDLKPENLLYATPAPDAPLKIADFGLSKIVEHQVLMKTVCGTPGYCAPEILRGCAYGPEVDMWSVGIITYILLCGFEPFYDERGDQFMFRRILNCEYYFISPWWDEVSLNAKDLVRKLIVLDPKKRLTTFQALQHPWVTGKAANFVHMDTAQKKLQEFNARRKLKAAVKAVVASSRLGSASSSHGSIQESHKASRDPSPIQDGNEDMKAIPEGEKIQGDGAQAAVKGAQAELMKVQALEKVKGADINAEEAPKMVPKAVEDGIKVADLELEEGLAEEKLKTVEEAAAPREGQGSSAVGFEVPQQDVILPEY
In words: Selectivity interaction (Millipore kinase profiler) EUB0000124b CAMK4. Conditions: at 10 µM.

The target in test [4] is Serine/threonine-protein kinase mTOR (Homo sapiens, UniProt P42345). Conditions: at 10 µM.
Test [5] has as its target Mitogen-activated protein kinase 8 (Homo sapiens, UniProt P45983). Put plainly: Selectivity interaction (Kinase panel (Z-LYTE Assay)) EUB0001632a MAPK8. The conditions noted are these: at 10 µM.
Test [6] deals with Cyclin-dependent kinase 15 (Homo sapiens) (UniProt Q96Q40). In words: Selectivity interaction (KinomeScan (DiscoverX)) EUB0000607a CDK15. Conditions: at 10 µM.
Cyclin-dependent kinase 15 (Homo sapiens), sequence (Q96Q40 whole entry): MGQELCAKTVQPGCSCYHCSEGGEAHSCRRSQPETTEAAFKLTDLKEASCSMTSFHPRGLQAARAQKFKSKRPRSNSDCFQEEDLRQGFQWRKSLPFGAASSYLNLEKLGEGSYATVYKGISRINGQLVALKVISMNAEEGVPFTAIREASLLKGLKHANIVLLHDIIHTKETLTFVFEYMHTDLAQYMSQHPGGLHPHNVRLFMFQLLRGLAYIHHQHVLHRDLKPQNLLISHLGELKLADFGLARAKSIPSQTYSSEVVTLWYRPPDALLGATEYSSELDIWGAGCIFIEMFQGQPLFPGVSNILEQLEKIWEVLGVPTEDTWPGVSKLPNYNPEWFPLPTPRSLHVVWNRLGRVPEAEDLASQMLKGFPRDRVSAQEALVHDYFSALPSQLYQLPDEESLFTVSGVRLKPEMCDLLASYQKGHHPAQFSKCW

Serine/threonine-protein kinase 26, sequence (Q9P289 2-416 limits assumed): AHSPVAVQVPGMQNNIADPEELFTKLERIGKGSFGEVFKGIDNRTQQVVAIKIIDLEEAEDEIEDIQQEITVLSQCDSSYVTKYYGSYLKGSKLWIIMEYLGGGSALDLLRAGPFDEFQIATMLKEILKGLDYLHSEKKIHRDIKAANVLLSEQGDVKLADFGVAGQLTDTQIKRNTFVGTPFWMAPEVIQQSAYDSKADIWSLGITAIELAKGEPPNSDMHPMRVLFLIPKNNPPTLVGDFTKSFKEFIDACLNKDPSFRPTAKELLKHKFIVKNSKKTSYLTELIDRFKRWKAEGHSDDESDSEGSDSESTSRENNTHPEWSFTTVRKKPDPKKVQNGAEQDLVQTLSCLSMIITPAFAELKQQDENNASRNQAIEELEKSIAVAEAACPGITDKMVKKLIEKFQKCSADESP
Mitogen-activated protein kinase 8, sequence (P45983 whole entry): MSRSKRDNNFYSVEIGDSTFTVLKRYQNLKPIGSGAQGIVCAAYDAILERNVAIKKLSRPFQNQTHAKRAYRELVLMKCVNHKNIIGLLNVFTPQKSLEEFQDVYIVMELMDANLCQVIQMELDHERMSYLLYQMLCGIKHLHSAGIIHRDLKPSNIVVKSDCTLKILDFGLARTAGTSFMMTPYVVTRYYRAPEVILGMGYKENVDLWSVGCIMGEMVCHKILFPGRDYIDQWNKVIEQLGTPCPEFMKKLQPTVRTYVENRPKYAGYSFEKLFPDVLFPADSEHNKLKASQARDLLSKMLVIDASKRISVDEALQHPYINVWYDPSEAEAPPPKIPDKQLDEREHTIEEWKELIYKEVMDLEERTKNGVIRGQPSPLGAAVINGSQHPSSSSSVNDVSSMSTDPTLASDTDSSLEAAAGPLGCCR

Take `C=CC(=O)Nc1cccc(C(=O)Nc2ccc(Nc3cc(-c4[nH]c(SC)nc4C)ccn3)cc2)c1`: the % of control in test [1] (at 1 µM) came to 94%; in test [1] (at 5 µM) it was 97%.
For `CN(C)C/C=C/C(=O)Nc1ccc(C(=O)N2CCCC(Nc3ncc(Cl)c(-c4c[nH]c5ccccc45)n3)C2)cc1` (configuration not stated), in test [2], the % of control was 100%.
On to `CC(=O)Nc1cccc(-n2c(=O)n(C3CC3)c(=O)c3c(Nc4ccc(I)cc4F)n(C)c(=O)c(C)c32)c1`, for which the % of control in test [3] worked out at 97%.
As for `CCC(=O)N1CCN(c2ccc(-n3c(=O)ccc4cnc5ccc(-c6cnc7ccccc7c6)cc5c43)cc2C(F)(F)F)CC1`, in test [4], the % of control amounted to 0%.
`Cn1cc(-n2cnc3c(NCc4nc5cc(Cl)c(Cl)cc5[nH]4)nc(N4CCOCC4)nc32)cn1`: the % of control in test [5] is -4.21%.
Regarding `CNC(=O)Nc1ccc(-c2nc(N3CC4CCC(C3)O4)c3cnn(C4CCC5(CC4)OCCO5)c3n2)cc1`, the % of control in test [6] is 100%.
